Laboratory results from paper PMC6851183, “Computational design and characterization of nanobody-derived peptides that stabilize the active conformation of the β2-adrenergic receptor (β2-AR)” (Scientific Reports, 2019).
Ends that are not written are not given here.

Target: T1, β2-AR/RLuc8 with GFP^2/β-arr2 Arg393Glu, Arg395Glu (Homo sapiens, UniProt P07550)
T1 construct: expressed in transfected cells; host or cells: HEK-293
Experiment: BRET^2-based β-arrestin 2 recruitment assay
Assay type: cell-based

T1 sequence (P07550 whole entry, change not shown): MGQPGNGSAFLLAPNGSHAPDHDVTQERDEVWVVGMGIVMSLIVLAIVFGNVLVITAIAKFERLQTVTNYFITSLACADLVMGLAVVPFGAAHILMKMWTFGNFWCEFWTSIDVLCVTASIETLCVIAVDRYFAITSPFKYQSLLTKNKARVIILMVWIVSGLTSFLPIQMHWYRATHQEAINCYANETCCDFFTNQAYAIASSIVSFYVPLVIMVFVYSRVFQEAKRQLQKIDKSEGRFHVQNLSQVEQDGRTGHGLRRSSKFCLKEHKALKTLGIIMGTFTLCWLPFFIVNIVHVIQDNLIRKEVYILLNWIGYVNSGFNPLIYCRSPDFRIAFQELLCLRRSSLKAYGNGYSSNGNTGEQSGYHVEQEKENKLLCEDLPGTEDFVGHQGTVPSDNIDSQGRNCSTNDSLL

EDTAVYYCNANWDLLSD [P3]
EC50: ~1 nM
reduction in isoproterenol-induced BRET^2 signal (homogenized or permeabilized cells, 10 µM isoproterenol, P3 10^−12 to 10^−5 M, dose-dependent, maximum): up to 10%
